The test system of the assay is children diagnosed with ADHD. As to the kind of experiment: SSVEP phase/latency change during the Continuous Performance Task (CPT A-X) before and one hour after stimulant medication. It counts as in vivo, human. The settings on record: one hour after medication vs before. How it is done:
An example of the invention will now be briefly described with reference to FIGS. 15 and 16. The method was used on patients who are children diagnosed with Attention Deficit […] Disorder (ADHD).
Children diagnosed with ADHD were tested to examine the effects of stimulant medication (methylphenidate or Ritalin) on the amplitude and phase of the steady state visually evoked potential (SSVEP). The children performed two cognitive tasks before the stimulant medication was administered and then repeat the tasks one hour after stimulant medication was administered.
The first task was a low demand vigilance task where the patients were required to press a micro switch on the predictable appearance of the number “5” in the repeated sequence “1, 2, 3, 4, 5”. The second task was known as the A-X version of the Continuous Performance Task (CPT A-X). In this more demanding task, patients were required to press a micro switch on the appearance of the letter “X” if and only if it has been preceded by the letter “A”.
FIGS. 15 and 16 illustrate the spatial distribution of the difference between the mean SSVEP phase, evaluated over the entire CPT A-X task before medication, and the point in time corresponding to the disappearance of the letter “A” in the CPT A-X task after medication.

Take `COC(=O)C(c1ccccc1)C1CCCCN1` (centres unmarked) [methylphenidate]: the “change in SSVEP phase (latency) at prefrontal sites” value (FIG. 15, child diagnosed with ADHD and responding to the stimulant medication) was “large SSVEP latency reduction at prefrontal sites”; the “change in SSVEP phase (latency) at prefrontal sites” value (FIG. 16, different child diagnosed with ADHD and not responding to stimulant medication) is listed as “absence of SSVEP latency reduction at prefrontal sites”.

The values are drawn from patent US6856913B1, “Decentralized patient management method” (Swineburn Limited, priority 1998, dated 2005).
